From ChEMBL document CHEMBL5260832, “Hepatoprotective natural triterpenoids” (Eur J Med Chem, 2018)

Each compound was assayed on Mus musculus (assay: Hepatoprotective activity against D-GaIN/CCl4 induced liver injury mouse model assessed as reduction in GPT level at 30 microg/kg, iv relative to control). Details: dose 30 µg/kg.
Type: functional
Design: scale not given: the % may be the effect or the level left

| SMILES | Activity |
| --- | --- |
| CC(C)=CCC[C@@](C)(O)[C@H]1CC[C@]2(C)[C@@H]1[C@H](O)C[C@@H]1[C@@]3(C)CC[C@H](O)C(C)(C)[C@@H]3[C@@H](O[C@@H]3O[C@H](CO)[C@@H](O)[C@H](O)[C@H]3O[C@@H]3O[C@H](CO)[C@@H](O)[C@H](O)[C@H]3O)C[C@]12C | 73% |
| CC(C)=CCC[C@](C)(O)[C@H]1CC[C@]2(C)[C@@H]1[C@H](O)C[C@@H]1[C@@]3(C)CC[C@H](O[C@@H]4O[C@H](CO)[C@@H](O)[C@H](O)[C@H]4O[C@@H]4O[C@H](CO)[C@@H](O)[C@H](O)[C@H]4O)C(C)(C)[C@@H]3CC[C@]12C | 63% |

These compounds were tested on Hepatocyte (assay: Hepatoprotective activity against D-GaIN/LPS induced liver injury in rat hepatocytes assessed as cell death at 10 to 500 uM relative to control). Details: dose 10-500 µM.
Type: functional

| SMILES | Activity |
| --- | --- |
| C[C@@H]1O[C@@H](O[C@H]2[C@H](O[C@H]3[C@H](O[C@H]4CC[C@@]5(C)[C@@H](CC[C@]6(C)[C@@H]5CC=C5[C@@H]7CC(C)(C)[C@H](O[C@@H]8O[C@H](CO)[C@@H](O)[C@H](O)[C@H]8O)C[C@]7(C)CC[C@]56C)[C@@]4(C)CO)O[C@H](C(=O)O)[C@@H](O)[C@@H]3O)O[C@H](CO)[C@H](O)[C@@H]2O)[C@H](O)[C@H](O)[C@H]1O | 0% |
| C[C@@H]1O[C@@H](O[C@H]2[C@H](O[C@H]3[C@H](O[C@H]4CC[C@@]5(C)[C@@H](CC[C@]6(C)[C@@H]5CC=C5[C@@H]7CC(C)(C)C[C@@H](O)[C@]7(C)CC[C@]56C)[C@@]4(C)CO)O[C@H](C(=O)O)[C@@H](O)[C@@H]3O)O[C@H](CO)[C@H](O)[C@@H]2O)[C@H](O)[C@H](O)[C@H]1O [SOYASAPONIN I] | 0% |
| C[C@@H]1O[C@@H](O[C@H]2[C@H](O[C@H]3[C@H](O[C@H]4CC[C@@]5(C)[C@@H](CC[C@]6(C)[C@@H]5CC=C5[C@@H]7CC(C)(C)C[C@@H](O[C@@H]8O[C@H](CO)[C@@H](O)[C@H](O)[C@H]8O)[C@]7(C)CC[C@]56C)[C@@]4(C)CO)O[C@H](C(=O)O)[C@@H](O)[C@@H]3O)O[C@H](CO)[C@H](O)[C@@H]2O)[C@H](O)[C@H](O)[C@H]1O | 0% |
| C[C@@H]1O[C@@H](O[C@H]2[C@H](O[C@H]3[C@H](O[C@H]4CC[C@@]5(C)[C@@H](CC[C@]6(C)[C@@H]5CC=C5[C@@H]7C[C@@](C)(CO[C@@H]8O[C@H](CO)[C@@H](O)[C@H](O)[C@H]8O)C[C@@H](O)[C@]7(C)CC[C@]56C)[C@@]4(C)CO)O[C@H](C(=O)O)[C@@H](O)[C@@H]3O)O[C@H](CO)[C@H](O)[C@@H]2O)[C@H](O)[C@H](O)[C@H]1O | 0% |
| C[C@@H]1O[C@@H](O[C@H]2[C@H](O[C@H]3[C@H](O[C@H]4CC[C@@]5(C)[C@@H](CC[C@]6(C)[C@@H]5CC=C5[C@@H]7CC(C)(C)C[C@@H](O[C@@H]8O[C@@H](C)[C@H](O)[C@@H](O)[C@H]8O)[C@]7(C)CC[C@]56C)[C@@]4(C)CO)O[C@H](C(=O)O)[C@@H](O)[C@@H]3O)O[C@H](CO)[C@H](O)[C@@H]2O)[C@H](O)[C@H](O)[C@H]1O | 0% |
| C[C@@H]1O[C@@H](O[C@H]2[C@H](O[C@H]3[C@H](O[C@H]4CC[C@@]5(C)[C@@H](CC[C@]6(C)[C@@H]5CC=C5[C@@H]7CC(C)(C)CC(=O)[C@]7(C)CC[C@]56C)[C@@]4(C)CO)O[C@H](C(=O)O)[C@@H](O)[C@@H]3O)O[C@H](CO)[C@H](O)[C@@H]2O)[C@H](O)[C@H](O)[C@H]1O | 0% |
| C[C@@H]1O[C@@H](O[C@H]2[C@H](O[C@H]3[C@H](O[C@H]4CC[C@@]5(C)[C@@H](CC[C@]6(C)[C@@H]5CC=C5[C@@H]7CC(C)(C)[C@@H](O[C@@H]8OC[C@@H](O)[C@H](O)[C@H]8O)[C@@H](O)[C@]7(C)CC[C@]56C)[C@@]4(C)CO)O[C@H](C(=O)O)[C@@H](O)[C@@H]3O)O[C@H](CO)[C@H](O)[C@@H]2O)[C@H](O)[C@H](O)[C@H]1O | 0% |
| C[C@@H]1O[C@@H](O[C@H]2[C@H](O[C@H]3[C@H](O[C@H]4CC[C@@]5(C)[C@@H](CC[C@]6(C)[C@@H]5CC=C5[C@@H]7CC(C)(C)C[C@@H](O)[C@]7(C)CC[C@]56C)[C@@]4(C)CO)O[C@H](C(=O)O)[C@@H](O)[C@@H]3O)OC[C@@H](O)[C@@H]2O)[C@H](O)[C@H](O)[C@H]1O | 0% |
| C[C@@H]1O[C@@H](O[C@H]2[C@H](O[C@H]3[C@H](O[C@H]4CC[C@@]5(C)[C@@H](CC[C@]6(C)[C@@H]5CC=C5[C@@H]7CC(C)(C)[C@H](O[C@@H]8O[C@H](CO)[C@@H](O)[C@H](O)[C@H]8O)C[C@]7(C)CC[C@]56C)[C@@]4(C)CO)O[C@H](C(=O)O)[C@@H](O)[C@@H]3O)OC[C@@H](O)[C@@H]2O)[C@H](O)[C@H](O)[C@H]1O | 0% |

The compounds below were run on L02 (assay: Hepatoprotective activity against D-GaIN-induced toxicity in human HL7702 cells assessed as inhibition of cell survival rate at 10 uM relative to control). Details: not given.
Type: functional

| SMILES | Activity |
| --- | --- |
| CCCCOC(=O)[C@H]1O[C@@H](O[C@H]2CC[C@]3(C)[C@H]4CC=C5[C@@H]6CC(C)(C)CC[C@]6(C(=O)O[C@@H]6O[C@H](CO)[C@@H](O)[C@H](O)[C@H]6O)CC[C@@]5(C)[C@]4(C)CC[C@H]3C2(C)C)[C@H](O[C@@H]2O[C@H](CO)[C@@H](O)[C@H](O)[C@H]2O)[C@@H](O)[C@@H]1O[C@@H]1OC[C@H](O)[C@H](O)[C@H]1O | 48.3% |
| CCOC(=O)[C@H]1O[C@@H](O[C@H]2CC[C@]3(C)[C@H]4CC=C5[C@@H]6CC(C)(C)CC[C@]6(C(=O)O)CC[C@@]5(C)[C@]4(C)CC[C@H]3C2(C)C)[C@H](O[C@@H]2O[C@H](CO)[C@@H](O)[C@H](O)[C@H]2O[C@@H]2OC[C@@H](O)[C@H](O)[C@H]2O)[C@@H](O)[C@@H]1O | 44.8% |
| CCCCOC(=O)[C@H]1O[C@@H](O[C@H]2CC[C@]3(C)[C@H]4CC=C5[C@@H]6CC(C)(C)CC[C@]6(C(=O)O[C@@H]6O[C@H](CO)[C@@H](O)[C@H](O)[C@H]6O[C@@H]6OC[C@@H](O)[C@H](O)[C@H]6O)CC[C@@]5(C)[C@]4(C)CC[C@H]3C2(C)C)[C@H](O[C@@H]2O[C@H](CO)[C@@H](O)[C@H](O)[C@H]2O[C@@H]2O[C@@H](C)[C@H](O)[C@@H](O)[C@H]2O)[C@@H](O)[C@@H]1O | 54.7% |
| CCCCOC(=O)[C@H]1O[C@@H](O[C@H]2CC[C@]3(C)[C@H]4CC=C5[C@@H]6[C@@H](C)[C@H](C)CC[C@]6(C(=O)O[C@@H]6O[C@H](CO)[C@@H](O[C@@H]7O[C@@H](C)[C@H](O)[C@@H](O)[C@H]7O)[C@H](O)[C@H]6O)CC[C@@]5(C)[C@]4(C)CC[C@H]3C2(C)C)[C@H](O[C@@H]2O[C@H](CO)[C@@H](O)[C@H](O)[C@H]2O[C@@H]2O[C@@H](C)[C@H](O)[C@@H](O)[C@H]2O)[C@@H](O)[C@@H]1O | 32.2% |
| COC(=O)c1cc(OC)c2c(c1-c1c(CO)cc(OC)c3c1OCO3)OCO2 [BICYCLOL] | 26.2% |
| C=C(C)[C@@H]1CC[C@]2(C(=O)O[C@@H]3O[C@H](C(=O)OCC)[C@@H](O)[C@H](O)[C@H]3O[C@@H]3OC[C@@H](O)[C@H](O)[C@H]3O)CC[C@]3(C)[C@H](CC[C@@H]4[C@@]5(C)CC[C@H](O)C(C)(C)[C@@H]5CC[C@]43C)[C@@H]12 | 48.3% |
| C[C@@H]1O[C@@H](O[C@H]2[C@H](O[C@H]3[C@H](O[C@H]4CC[C@]5(C)[C@H]6CC=C7[C@@H]8CC(C)(C)CC[C@]8(C(=O)O[C@@H]8O[C@H](CO)[C@@H](O)[C@H](O)[C@H]8O)CC[C@@]7(C)[C@]6(C)CC[C@H]5C4(C)C)O[C@H](C(=O)O)[C@@H](O)[C@@H]3O)O[C@H](CO)[C@@H](O)[C@@H]2O)[C@H](O)[C@H](O)[C@H]1O | 87.3% |
| CCOC(=O)[C@H]1O[C@@H](O[C@H]2CC[C@]3(C)[C@H]4CC=C5[C@@H]6CC(C)(C)CC[C@]6(C(=O)O[C@@H]6O[C@H](CO)[C@@H](O)[C@H](O)[C@H]6O[C@@H]6O[C@H](COC(C)=O)[C@@H](O)[C@H](O)[C@H]6O)CC[C@@]5(C)[C@]4(C)CC[C@H]3C2(C)C)[C@H](O[C@@H]2O[C@H](CO)[C@@H](O)[C@H](O)[C@H]2O[C@@H]2O[C@@H](C)[C@H](O)[C@@H](O)[C@H]2O)[C@@H](O)[C@@H]1O | 75.7% |
| C[C@@H]1O[C@@H](O[C@H]2[C@H](O[C@H]3[C@H](O[C@H]4CC[C@]5(C)[C@H]6CC=C7[C@@H]8CC(C)(C)CC[C@]8(C(=O)O)CC[C@@]7(C)[C@]6(C)CC[C@H]5C4(C)C)O[C@H](C(=O)O)[C@@H](O)[C@@H]3O)O[C@H](CO)[C@@H](O)[C@@H]2O)[C@H](O)[C@H](O)[C@H]1O | 56.8% |
| C=C(C)[C@@H]1CC[C@]2(C(=O)O)CC[C@]3(C)[C@H](CC[C@@H]4[C@@]5(C)CC[C@H](O[C@@H]6O[C@H](C(=O)OCC)[C@@H](O)[C@H](O)[C@H]6O[C@@H]6OC[C@@H](O)[C@H](O)[C@H]6O)C(C)(C)[C@@H]5CC[C@]43C)[C@@H]12 | 32.8% |
| CC1(C)CC[C@]2(C(=O)O)CC[C@]3(C)C(=CC[C@@H]4[C@@]5(C)CC[C@H](O)[C@@](C)(CO)[C@@H]5CC[C@]43C)[C@@H]2C1 [HEDERAGENIN] | 62.4% |
| CC1(C)C[C@H]2C3=CC[C@@H]4[C@@]5(C)C=CC(=O)C(C)(C)[C@@H]5CC[C@@]4(C)[C@]3(C)CC[C@@]2(C(=O)O)C[C@@H]1O | 76.8% |
| CCOC(=O)[C@H]1O[C@@H](O[C@H]2CC[C@]3(C)[C@H]4CC=C5[C@@H]6CC(C)(C)CC[C@]6(C(=O)O[C@@H]6O[C@H](CO)[C@@H](O[C@@H]7O[C@@H](C)[C@H](O)[C@@H](O)[C@H]7O)[C@H](O)[C@H]6O)CC[C@@]5(C)[C@]4(C)CC[C@H]3C2(C)C)[C@H](O[C@@H]2O[C@H](CO)[C@@H](O)[C@H](O)[C@H]2O[C@@H]2O[C@@H](C)[C@H](O)[C@@H](O)[C@H]2O)[C@@H](O)[C@@H]1O | 81.4% |
